Residues, ends and D or L forms follow the SMILES beside them. *: point of attachment. Adamantane1carbonyl = O=C(C12CC3CC(CC(C3)C1)C2)*
Assay: Compound was evaluated for binding affinity against Opioid receptor delta 1 binding assay: Inactive

CC[C@H](C)[C@H](NC(=O)[C@H](Cc1ccc(O)cc1)NC(=O)[C@@H]1CCCN1C(=O)[C@H](CCCCN)NC(=O)C12CC3CC(CC(C3)C1)C2)C(=O)N[C@@H](CC(C)C)C(=O)O [(S)-2-{(2S,3S)-2-[(S)-2-[((S)-1-{(S)-2-[(Adamantane-1-carbonyl)-amino]-6-amino-hexanoyl}-pyrrolidine-2-carbonyl)-amino]-3-(4-hydroxy-phenyl)-propionylamino]-3-methyl-pentanoylamino}-4-methyl-pentanoic acid] (Adamantane1carbonyl-KPYIL-OH)
Ki: > 100 µM

From BindingDB's records for doi:10.1016/S0960-894X(01)81014-3 (1993)
